“Also recorded” adds a separate entry of the source.
Columns and labels:
Type in all cases: in vivo, mouse
ApoE-deficient mice [1] = test: Plaque histology: osteosense staining of calcifications, oil red O staining; settings: ApoE-deficient mice on HFD, 30 mg/kg/day from 10 to 25 weeks
Excerpt: (§1) Four cohorts of mice were used in these studies (FIGS. 8A and 9A). Cohorts 1 and 2 were devoted to the in vivo and ex vivo characterization of TNAP-associated plaque calcification. 6-week-old ApoE-deficient male mice were received at the animal facility and placed in conventional cages with 5 mice per cage. Mice were maintained on a 12-hrs light-dark cycle (7:00 am-7:00 pm) and were supplied with food and water ad libitum. From 10 weeks of age, they were fed ad libitum with a high fat diet (HFD, D12108C, Research Diets, New Brunswick, USA) containing 40% fat (kcal) and 1.25% cholesterol (weight). In cohort 1, 8 mice were sacrificed every 2 weeks between weeks 17 to 31, for histological and molecular analyses. Total body weight was measured weekly after starting the HFD. The sacrifice was done after anesthesia with isoflurane and intracardiac blood puncture by CO2 inhalation. Tissues were harvested as described below. The abdominal aorta was used for quantitative polymerase chain reaction (PCR) analyses. Mice from cohort 2 were used to analyze aorta calcification with ^18F—NaF μPET and μCT and to compare the in vivo data with the ex vivo results obtained in cohort 1. Animals were transferred from the animal facility to the Cermep imaging platform. Cohorts 3 and 4 were used to determine in vivo and ex vivo the impact of TNAP inhibition on the vasculature, liver, bones, and kidneys. According to the results obtained in cohorts 1 and 2, TNAP inhibitor SBI-425 (30 mg/kg/day, formulated as a food admixture in the HFD) was administered in a preventive manner from 10 weeks of age. Treatment was stopped at 25 weeks or 31 weeks of age. Plaque calcification was analyzed at 25 weeks, and possible side effects of TNAP inhibition were explored in mice aged 31 weeks. Mice in cohort 3 (2 groups of 13 mice) were used for ex vivo analysis, and mice in cohort 4 (2 groups of 12 mice) for in vivo imaging and ex vivo analyses.
After euthanasia, the heart and vasculature were perfused with sterile NaCl 0.9%. The aortic root and the aortic arch, with the major arteries that stem from them (brachiocephalic, left common carotid and left subclavian), were dissected and frozen in optimal cutting temperature medium (OCT, Thermo Scientific) and stored at −80° C. before serial cryo-sectioning. The aortic root, aortic arch and carotid were dissected under a microscope, frozen in optimal cutting medium (OCT, Thermo Scientific) and stored at −80° C. before serial cryo-sectioning. […] Calcification was imaged by near infrared fluorescence (NIRF) with the calcium tracer osteosense (OS) (PerkinElmer, ex/em 650/680 nm). […] Quantification was performed by computer image analysis using Image J software (NIH, Bethesda, Md.) by averaging of measurements from 2 sections of 15 μm apart using ImageJ software. […]

ApoE-deficient mice [2] = test: Liver content of cholesterol, triglycerides, bile acids, hydroxyproline; settings: 30 mg/kg/day, 25 weeks, vs control
Excerpt: as §1
For the determination of cholesterol, triglycerides, and total bile acids in liver, 40-mg pieces of liver were homogenized in 1 mL of 5% NP40 solution in a dounce homogenizer. The hydrophobic components were extracted twice at 80° C. for 5 minutes. The samples were centrifuged, and the supernatants were assayed for cholesterol, triglycerides and bile acids with the same kits used for blood. In order to quantify hydroxyproline, 100 mg pieces of liver were homogenized in 1 mL of pure water in a dounce homogenizer and a perchlorate-free kit from Sigma was used (MAK357).

ApoE-deficient mice [3] = test: Quantitative PCR of transcript levels in the liver; settings: 30 mg/kg/day, 25 weeks, vs control
ApoE-deficient mice [4] = test: NMR metabolomics of liver and kidney extracts; settings: 30 mg/kg/day, vs control
Excerpt: as §1, with “According to the results obtained in cohorts 1 and 2, TNAP inhibitor SBI-425 (30 mg/kg/day, formulated as a food admixture in the HFD) was administered in a preventive manner from 10 weeks of age. Treatment was stopped at 25 weeks or 31 weeks of age.” left out, “Mice in cohort 3 (2 groups of 13 mice) were used for ex vivo analysis, and mice in cohort 4 (2 groups of 12 mice) for in vivo imaging and ex vivo analyses.” left out
Liver and kidney extraction and NMR measurement: The frozen tissues were weighed and then extracted using the methanol-chloroform-water system [2:2:1.425 (v/v/v)]. […] Deuterated phosphate buffer at pH=7.4 (200 mM) was added to the dried aqueous extract with sodium 2,2,3,3-tetradeutero-3-trimethylsilylpropionate (TSP) (Sigma-Aldrich) as internal chemical shift and quantification reference. ^1H NMR spectra were recorded at 298 K on a Bruker Avance spectrometer 500 equipped with a 5-mm TCI cryoprobe. […]

## COc1ccc(Cl)cc1S(=O)(=O)Nc1cncc(C(N)=O)c1 [SBI-425]
ApoE-deficient mice [1]; OS staining, control 13 out of 13
  mice that formed calcifications, by histology: 9 out of 13
ApoE-deficient mice [1]; OS staining, vs control
  number of calcifications per mice: lower
ApoE-deficient mice [1]; oil red O, vs control
  plaque lipids (lipid surface): less lipids
ApoE-deficient mice [1]; oil red O, vs control, 30 mg/kg/day
  plaque size (plaque surface): smaller; also recorded: reduced
ApoE-deficient mice [2]
  liver TG content: not increased
  liver bile acids levels: did not change
  liver cholesterol levels: did not change
  liver hydroxyproline levels (liver fibrosis): unchanged
ApoE-deficient mice [3]
  Abcg8 transcript level, liver: did not change
  Cyp7a1 transcript level, liver: did not change
  Cyp7b1 transcript level, liver: did not change
  Fas transcript level (fatty acid synthesis), liver: nor were the levels of transcripts associated with fatty acid synthesis (Srebp1c, Fas) (FIGS. 6B-6G) changed
  Hmgcr transcript level, liver: did not change
  Hp transcript level (liver inflammation): unchanged
  Il1b transcript level (liver inflammation): unchanged
  Ly6g transcript level (liver inflammation): unchanged
  Scarb1 transcript level, liver: did not change
  Srebp1c transcript level (fatty acid synthesis), liver: nor were the levels of transcripts associated with fatty acid synthesis (Srebp1c, Fas) (FIGS. 6B-6G) changed
  Tnfa transcript level (liver inflammation): unchanged
ApoE-deficient mice [4]; 25 weeks
  kidney phosphocholine levels: increased
  liver phosphocholine levels: decreased; also recorded: variations close to significance
ApoE-deficient mice [4]
  liver or kidney metabolism (metabolomics, PLS-DA): did not evidence a significant impact; also recorded: did not significantly change

— US20230149374A1, “METHODS AND COMPOSITIONS FOR TREATING ATHEROSCLEROSIS” (Sanford Burnham Prebys Medical Discovery Institute, priority 2021, published 2023)
